The record followed here is US6869788B2, “DNA encoding novel D-aminoacylase and process for producing D-amino acid by using the same” (Mitsui Chemicals, Inc., priority 2001, dated 2005).

Data set [1] concerns D-aminoacylase derived from Methylobacterium mesophilicum MT 10894 (FERM BP-7856). Nature of the data set: Substrate specificity of E. coli transformed by the DNA containing the D-aminoacylase gene to N-acetyl-DL-amino acids. The class given is biochemical. The conditions noted are these: substrate 5 g/L, 40° C., 16 hours; activity with N-acetyl-DL-tryptophan as substrate = 100. On the procedure:
Reactivity and an optical purity were evaluated by analyzing a D-amino acid produced in a reaction and a remaining N-acylamino acid by high performance liquid chromatography (column: CROWNPAK CR(−); Daicel Chemical Industries, Ltd.); column temperature: 40° C.; mobile phase: HClO4 aq. pH 1.5 and 0 to 15% methanol (v/v); flow rate 0.8 mL/min, detection: 210 nm).
E. coli transformed by the plasmid shown in FIG. 1 in Example 7 was subject to shaking culture in an LB medium containing ampicillin (50 μg/mL) at 37° C. overnight. After culturing, the bacterial cells were harvested by centrifugation and washed with a 0.1 M phosphate buffer (pH 7.8). The bacterial cells were suspended in a 0.1 M phosphate buffer (pH 7.8).
Substrate specificity of E. coli transformed by the plasmid shown in FIG. 1 in Example 7 was compared for N-acetyl-DL-amino acids. In this example, the reaction was conducted at a substrate N-acetyl-DL-amino acid concentration of 5 g/L at 40° C. for 16 hours. Relative activities to a variety of N-acetyl-DL-amino acids together with optical purities and reaction yields were determined, assuming that D-aminoacylase activity was 100 when N-acetyl-DL-tryptophan was a substrate.

The nature of data set [2]: Physical properties of the D-aminoacylase (optimal pH, optimal temperature, thermal stability). The class given is physicochemical.

As for `CC(=O)NC(COCc1ccccc1)C(=O)O` (racemic) [N-acetyl-DL-o-benzylserine], in data set [1], the “Relative activity (%)” value was found to be 30%. `CC(=O)NC(Cc1ccccc1)C(=O)O` (racemic) [N-acetyl-DL-phenylalanine]: in data set [1], the “Relative activity (%)” value is given as 104%.

For `CC(=O)NC(Cc1c[nH]c2ccc(O)cc12)C(=O)O` (racemic) [N-acetyl-DL-5-hydroxytryptophan], the “Relative activity (%)” value in data set [1] is on record as 80%. The same measure, in the same setting: the same measure for `CC(=O)NC(Cc1ccc(O)cc1)C(=O)O` (racemic) [N-acetyl-DL-tyrosine]: 67%.

As to `CC(=O)NC(Cc1c[nH]c2ccccc12)C(=O)O` (racemic) [N-acetyl-DL-tryptophan], in data set [1], the “Relative activity (%)” value was 100%. Still for that read-out and setting: the same measure for `CC(=O)NC(Cc1ccc(Cl)cc1)C(=O)O` (racemic) [N-acetyl-DL-4-chlorophenylalanine]: 89%; for `CC(=O)NC(Cc1ccc(F)cc1)C(=O)O` (racemic) [N-acetyl-DL-4-fluorophenylalanine]: 99%; for `CC(=O)NC(CCc1ccccc1)C(=O)O` (racemic) [N-acetyl-DL-homophenylalanine]: 45%.

B1: D-aminoacylase: the D-aminoacylase according to this invention, whose physical properties are listed; source strain not stated at that place (protein, listed as Methylobacterium mesophilicum)
chain: MTDSTRKHDLIIRGGTVIDGRRTPRFRADVAVRDGRLSAIGDLADHRAAQEIDATGRIVAPGFIDSHTHDDQAVLSQPQIPFKVSQGVTTVIAGNCGISAAPLRRDMDLPMPLNLIDVPAEERFTRFADYLDALRARPSSVNVAAMVGHSTLRAVTMPALDREANSEEIARMRALVQEAMDAGAIGVSTGTFYPPAVKATTEEIIEVCRPLTAAGGLYVTHMRDESDQVMTSLEETFRIGRALDVPVVVSHHKVQNTPNFGKSQVTLPFIREAMQRQRVCLDCYPYTAGSTMIRADRGMLEGRVLIAESLPHPECAGRDLDDIARDWGVDRVEAARRLQPGSAIYFLMDEGDVQRILAFDDTMIGSDGIPVGSKPHPRLWGTFPRVLGHYSRDVGLFPLETAVWKMTGLTARNFGLHGRGTLEAGQAADIVVFDAGTVRDAADYAEPTRPAEGIDAVIVNGAITWQGGQHTGARQGQVIRRQAAPSH
On to B1, for which the Optimal temperature in data set [2] was 60° C.;. Besides, the “Thermal stability: remaining activity” value in data set [2] (after heating at 40° C. for 20 hours) stood at 80% remaining activity.
